The numbers were not newly measured in patent US20150098993A1, “COMPOSITIONS, PROCESS OF PREPARATION OF SAID COMPOSITIONS AND METHOD OF TREATING INFLAMMATORY DISEASES” (priority 2011, published 2015), which cites them from elsewhere.

SMILES strings stand for the structures.

Assay in data set [1]: not given
The source holds these as a separate data set.

Assay in data set [2]: not given
The source holds these as a separate data set.

The test system of data set [3] is DBA/1 mice. To be noted: DBA/1 mice immunized with bCII/CFA; Dalbeth.
In data set [4] the test system is mice. As to conditions: in mice.
For data set [5], the system named is male BALB/c mice. To be noted: apremilast 5 and 25 mg/kg, dexamethasone 1 mg/kg; daily, oral; McCann.
The conditions of data set [6]: in vivo.
Data set [7] concerns the target T1, AT1 receptor (Homo sapiens, UniProt P30556).
T1 sequence (P30556 1-359): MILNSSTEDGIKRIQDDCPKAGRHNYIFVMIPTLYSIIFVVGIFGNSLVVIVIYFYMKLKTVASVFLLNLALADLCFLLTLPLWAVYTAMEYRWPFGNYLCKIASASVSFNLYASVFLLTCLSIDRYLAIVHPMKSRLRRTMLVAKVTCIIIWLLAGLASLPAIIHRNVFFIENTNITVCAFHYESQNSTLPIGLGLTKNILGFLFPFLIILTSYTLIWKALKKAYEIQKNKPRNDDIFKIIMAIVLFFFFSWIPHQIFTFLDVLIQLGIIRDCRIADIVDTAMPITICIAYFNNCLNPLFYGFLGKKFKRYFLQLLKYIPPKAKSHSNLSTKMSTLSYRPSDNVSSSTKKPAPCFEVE
As to conditions: AT1 vs AT2 receptor.

As to `CCOC(=O)[C@H](CCc1ccccc1)N[C@@H](C)C(=O)N1Cc2ccccc2C[C@H]1C(=O)O` [Quinapril, (3S)-2-[(2S)-2-{[(2S)-1-ethoxy-1-oxo-4-phenylbutan-2-yl]amino}propanoyl]-1,2,3,4-tetrahydroisoquinoline-3-carboxylic acid], the “time of peak plasma concentration” value (following oral administration) is listed as “within one hour”. Also, under “in vivo”, the T½ was 13 h, the extent of absorption entry is given as “at least 60%” and the half-life was 2 h. The “half-life, prolonged terminal phase” value (terminal phase) was 25 h. Also, the “solubility in aqueous solvents” value in data set [1] (aqueous solvents) is reported as “freely soluble”. The protein binding entry in data set [2] is “about 97%”. Also, the “severity of collagen-induced arthritis” value in data set [3] is “reduced the severity”. The maximum tolerated dose in data set [4] is recorded as 25 mg/kg.

In the case of `CCOc1cc([C@@H](CS(C)(=O)=O)N2C(=O)c3cccc(NC(C)=O)c3C2=O)ccc1OC` [Apremilast, (S)-N-{2-[1-(3-Ethoxy-4-methoxyphenyl)-2-methanesulfonylethyl]-1,3-dioxo-2,3-dihydro-1H-isoindol-4-yl}acetamide], the “arthritis severity, as measured by clinical score” value in data set [5] is reported as “significantly suppressed arthritis severity”.

As for `O=C(Nc1c(Cl)cncc1Cl)c1ccc(OC(F)F)c(OCC2CC2)c1` [CW304, 3-(cyclopropylmethoxy)-N-(3,5-dichloropyridin-4-yl)-4-(difluoromethoxy)benzamide], for the setting “in vivo”, the Cmax is 7040 ng/mL, the T½ is 12 to 14 h and the absolute bioavailability is 79%. Further, in data set [1] (acetone), the solubility in acetone entry is on record as “freely soluble”. The solubility in ethanol result in data set [1] (ethanol) is recorded as “sparingly soluble”. In addition, in data set [6], the “side effects of therapy” value is “gastrointestinal (GI) events including nausea, diarrhea, and weight loss”. Moreover, the maximum tolerated dose in data set [4] was 2 mg/kg.

For `Cc1ccc(NC(=O)c2ccc(CN3CCN(C)CC3)cc2)cc1Nc1nccc(-c2cccnc2)n1` [Imatinib, N-(4-methyl-3-{[4-(pyridin-3-yl)pyrmidin-2-yl]amino}phenyl)-4-[(4-methylpiperazin-1-yl)methyl]benzamide], under “in vivo”, the Tmax is 1.2 h and the “maximum levels achieved after dosing (time)” value is 2 to 4 h.

With `CCCc1nc(C(C)(C)O)c(C(=O)OCc2oc(=O)oc2C)n1Cc1ccc(-c2ccccc2-c2nnn[nH]2)cc1` [Olmesartan medoxomil], for the setting “in vivo”, the absolute bioavailability entry is on record as “about 26%”.

On to `CCCc1nc(C(C)(C)O)c(C(=O)OCc2oc(=O)oc2C)n1Cc1ccc(-c2ccccc2-c2nnn[nH]2)cc1` [(5-methyl-2-oxo-2H-1,3-dioxol-4-yl)methyl 4-(2-hydroxypropan-2-yl)-2-propyl-1-({4-[2-(2H-1,2,3,4-tetrazol-5-yl)phenyl]phenyl}methyl)-1H-imidazole-5-carboxylate], for which the “greater affinity for the AT1 receptor than for the AT2 receptor” value in data set [7] is > 12,500 fold. For the setting “in vivo”, the T½ was 13 h, the half-life result was “about 13 hours” and the “penetration of red blood cells” value is on record as “does not penetrate red blood cells”. Besides, the solubility in methanol entry in data set [1] (methanol) is recorded as “sparingly soluble”. Also, the solubility in water entry in data set [1] (water) was “practically insoluble”. The protein binding in data set [2] is 99%. Further, the “side effects of therapy” value in data set [6] was “dehydration (dry mouth, excessive thirst, muscle pain or cramps, nausea and vomiting, weakness), dizziness, low blood pressure, and slow or irregular heartbeat”. Besides, the maximum tolerated dose in data set [4] was 25 mg/kg.
